The text below walks through data of a melting point compilation (Tetko et al.; mined from patent text by program, amines drawn as free bases though some values may be those of a salt).

A value given as a limit tells only on which side of the number the result lay.

In general, melting point refers to the temperature of the solid-liquid transition. In turn, `COc1cc(OC)c([N+](=O)[O-])nc1N` gave a melting point of 195 °C.
With `CCCCNS(=O)(=O)CC(O)C(O)C(CC1CCCCC1)NC(=O)c1cccnc1` (centres undefined), the melting point is 61 to 64 °C.
`CN(CC(O)C(O)C(O)C(O)CO)C(=O)c1c(I)c(N)c(I)c(N)c1I` (centres undefined) had a melting point of 110 °C.
Molecule `COc1cccc(CC[C@H]2CN(Cc3ccccc3)CCN2Cc2ccccc2)c1` had a melting point of 73 to 75 °C.
The molecule `Cc1cccc2c1CN(S(C)(=O)=O)CCS2` returned a melting point of 128 to 130 °C.
For `Sc1nc2ncccc2[nH]1` the value was above 250 °C.
`Cc1cc(Oc2ccc(N)cc2)c2cc3c(cc2n1)OCO3` yielded a melting point of 251 to 253 °C.
`CCOC(=NO)C(=O)C1=Nc2ccccc2C(=O)N(C)C1` had a melting point of 173 to 174 °C.
`CCN(c1nc(C)cc(-c2ccccc2C(F)(F)F)n1)c1ccc(C(C)C)cc1Br` gave a melting point of 101 to 102 °C.
In turn, `c1ccc(C(c2ccccc2)N2CCN(CCCn3cnc4ccccc43)CC2)cc1` registered a melting point of 132 °C.
In turn, `COCn1ncc2cc(C(=O)NN)ccc21` returned a melting point of 141 to 142 °C.
`O=C(/C=C/c1cccnc1)N1CCN(C(=O)c2cc(C(F)(F)F)cc(C(F)(F)F)c2)[C@H](Cc2c[nH]c3ccccc23)C1` returned a melting point of 86.5 to 89.5 °C.
Take `CCCCCCC(=N)NC(=S)Nc1cccc(C(F)(F)F)c1`: the melting point is 105 to 107 °C.
`N#Cc1ccc(N2C(=O)N(CCF)C3(CCCC3)C2=O)cc1C(F)(F)F` registered a melting point of 115 °C.
Regarding `[O-][N+]#Cc1c(Cl)ccc2cc(Cl)cnc12`, the melting point came to 185 °C.
Molecule `CCOc1nn(Cc2ccc(OCc3nc(-c4ccccc4)oc3C)cn2)cc1CCC(=O)O` came in with a melting point of 133 to 134 °C.
For `COc1cccc(CC(=O)O)c1OCCn1cc(C(=O)NCc2ccc(Cl)cc2Cl)c(OC(C)C)n1` the value was 154 to 155 °C; for `O=C(c1ccc(Cl)cc1)c1ccc(SC(F)(F)F)cc1`, 78 to 79 °C.
Turning to `COC=C(C(=O)OC)C1=C(C=Cc2ccccc2)CCC1`, the melting point was determined as 107 °C.
For the molecule `C=CCOc1cc(C(=O)O)cc(C(=O)N(C)C)c1`, the melting point was in the range of 93 to 95 °C.
`CCc1cc(CC)c(-c2c(O)c(C)nn(C)c2=O)c(CC)c1Cl` had a melting point of 225 to 226 °C.
With `CCCc1nc(NCCOC(N)=O)nc(N2CCOCC2)n1`, the melting point lay within 139 to 140 °C.
`CCOC(=O)c1ncn2c1CN=C(c1ccccc1F)c1cc(C#C[Si](C)(C)C)ccc1-2` registered a melting point of 196 to 198 °C.
`CC(C)(C)c1nc(C(=O)c2ccccc2)nc(C(C)(C)C)c1O` returned a melting point of 129 to 131 °C.
The molecule `CC1Oc2ccccc2CC1NNc1ncnc2c1ncn2C1OC(CO)C(O)C1O` (centres undefined) displayed a melting point of 90 to 92 °C.
The molecule `Cc1cc(CC(=O)O)n(C)c1C(=O)c1ccc(F)cc1` had a melting point of 176 to 178 °C.
Molecule `O=C(Nc1ccc(-n2nc(C(F)(F)F)cc2C(F)(F)F)cc1)Nc1ccc(Cl)c([N+](=O)[O-])c1` showed a melting point of 207 to 209 °C.
As for `COC(=O)c1cccc(C(=O)N(C)c2ccc3c(=O)n4c(nc3c2)C(=Cc2ccccc2)CC4)c1`, the melting point lay in the range of 200 to 202 °C.
For `CN(C)c1ccc(N2C(=O)C3Cc4[nH]cnc4CN3C2=S)cc1` (centres undefined) the value was 185 to 200 °C; for `CCOC(=O)C1=CC(C)(C(=O)N(C)C)SC1N` (centres undefined), 122 to 124 °C; for `NC(=O)C(=O)c1ccccc1CCl`, 105 to 107 °C.
As to `COc1cc(Nc2ncc(C#N)c(-c3ccccc3)n2)cc(OC)c1`, the melting point lay within 206 to 207 °C.
For `CN(C)C(=O)COc1cc(Cl)ccc1C(=O)NCCN1CCN(CCc2ccccc2)CC1` the value was 159 to 160 °C.
The molecule `CCOC(=O)C(=CNc1ccccc1CO)C(=O)C(C)C` showed a melting point of 72 to 84 °C.
`O=C(CNc1c(C(=O)O)[nH]c2cc(Cl)ccc12)c1ccccc1O` showed a melting point of 198 to 200 °C.
Turning to `COc1ccc(C=NS(=O)(=O)c2ccc(C)cc2)cc1`, the melting point is 127 °C.
Molecule `CCc1nc2ccn(-c3ccccc3)n2c(=O)c1C(=O)O` had a melting point of 119 to 120 °C.
On to `COc1ccc(C(=O)Nc2cc(OC)c(Cl)cc2OC)cc1F`, for which the melting point was 197 to 199 °C.
As for `COc1cc(C=C(Br)Br)ccc1OC(C)C`, the melting point lay in the range of 36 to 38 °C.
`COc1ccc(OC)c(Nc2nc(-c3cccc([N+](=O)[O-])c3)cs2)c1`: the melting point is 154 °C.
The molecule `O=C(O)c1cncn1C(c1ccccc1)C1CCCCC1` (centres undefined) had a melting point of 250 °C.
`Clc1ccc(C(N=C2NCCN2)c2ccccc2)cc1` (centres undefined) yielded a melting point of 187 to 189 °C.
For `OC1CSC(Oc2ccc(-c3cncnc3)nc2Cl)C(O)C1O` (centres undefined) the value was 100 °C; for `O=C(O)C1C(C=C(Cl)Cl)C12CCCC2` (centres undefined), 90 to 105 °C.
For the molecule `Cc1nc(-n2ccc(O)cc2=O)sc1C(=O)NCc1ccc(F)cc1`, the melting point fell in the range of 280 to 282 °C.
For `CC(Oc1cccc(C=Cc2ccc3ccc(Cl)cc3n2)c1)C(N)=O` (single isomer, unassigned; (-)) the value was 195 to 197 °C; for `CSc1nc2c(cc1Cl)N(C(=O)Nc1cccnc1)CC2`, 266 to 267 °C; for `CCOC(=O)c1cn(C2CC2)c2c(F)c(F)c(F)c(F)c2c1=O`, 170 to 171 °C.
For `CC(C)CCOc1cc(C(=O)O)cc([N+](=O)[O-])c1` the value was 142 °C.
For `C=CCOC(=O)c1ccc(-c2nn(-c3ccc(C(=O)ON4C(=O)CCC4=O)cc3)c3ccccc23)cc1` the value was 178 °C.
In the case of `CCn1cc(C(=O)O)c(=O)c2cc(F)c(N3CCC(N)C3)c(F)c21` (centres undefined), the melting point lay within 240 to 242 °C.
In turn, `CC(C)(C)c1nc2cc(N3CCN(S(C)(=O)=O)CC3)c(N)cc2s1` registered a melting point of 153 to 155 °C.
`CCOC(=O)COc1ccc([N+](=O)[O-])cc1` displayed a melting point of 75 to 76 °C.
For `COc1cc2nc(S(=O)Cc3nccc(N4CCOCC4)c3F)[nH]c2cc1OC` (centres undefined) the value was 213 to 215 °C.
As to `COc1ccc(OC)c(NC(=O)c2cc(OC)ccc2OC)c1`, the melting point was in the range of 121 to 123 °C.
`Cc1c(-c2ccc(Cl)cc2)nc2ccc(C(=O)NC(Cc3ccc(OCc4ccccc4)cc3)C(=O)O)cn12` (centres undefined): the melting point fell in the range of 244 to 245 °C.
Turning to `CC(C)(C)c1cc(C(=O)OCCc2ccc([N+](=O)[O-])cc2)cc(C(C)(C)C)c1O`, the melting point is 124 °C.
For the molecule `O=c1c2c(OCC3CO3)cc(OCC3CO3)cc2oc2ccc3ccccc3c12` (centres undefined), the melting point fell in the range of 198 to 200 °C.
With `CC(C)(Cn1c(CO)nc2c(N)nc3cccnc3c21)NC(=O)C1CCCCC1`, the melting point was in the range of 230 to 232 °C.
Turning to `Cc1cccc(NC(=O)OCc2ccccn2)c1CNc1cccn2c(C)c(C)nc12`, the melting point is 163 to 165 °C.
`N#CC1(N2C(=O)C3=C(CCCC3)C2=O)CCCCC1` registered a melting point of 55.5 to 56.5 °C.
`CC(C)(Cc1nc2c(N)nc3ccccc3c2s1)OC(N)=O` had a melting point of 222 to 223 °C.
`O=C1C[C@@H](NC(=O)OCc2ccccc2)C(=O)O1` showed a melting point of 126 to 127 °C.
For `O=c1c(O)cn(-c2ccccc2F)nc1-c1ccnn1-c1ccccc1` the value was 218 to 220 °C.
